The subject of test [1] is TEAD-dependent transcription. In words: TEAD-500 score as pharmacodynamic marker in NCI-H226 xenograft tumors. Format: in vivo. As to conditions: SCID mice, 200 mg/kg BID, in 24 h, sufficient for tumor regression. How it is done:
(§1) TEAD-dependent transcription was scored in single samples as the difference Rp-Rn, where Rp is the mean fractional rank of the positive TEAD-effectors, and Rn, that of the negative effectors.
(§2) In vivo efficacy studies of the K-975 compound were performed in SCID mice inoculated subcutaneously into the right flank with 3×10^6 MSTO-211H or NCI-H226 cells. Mice bearing around 200 mm3 subcutaneous MSTO-211H tumors or 150 mm3 subcutaneous NCI-H226 tumors were randomly assigned to […] of 8 mice/group and treated with either vehicle or K-975 compound twice daily at 30, 100, and 200 mg/kg for 18 consecutive days. Tumor perpendicular diameters were measured twice a week with a caliper, and tumor volume (V) was calculated according to the following equation: V (mm3)=(d2 (mm2)×D (mm))/2, where d is the smallest, and D the largest perpendicular tumor diameters.
Fresh tumors were preserved in RNAlater (Thermo Fisher) and frozen at […]. Copurification of miRNA and total RNA was performed using a miRNeasy Mini Kit (QIAGEN, 217004). The RNA concentration and purity were evaluated with an ND-1000 spectrophotometer (NanoDrop, Thermo Fisher). Quality metrics are the RNA Integrity Number (RIN) and DV200 value (% of RNA fragments with a length≥200 nt). 100 ng total RNA per sample was used as input material for the library preparation. […]

A further test deals with NCI-H226 cells. In words: In vivo efficacy in subcutaneous NCI-H226 xenografts in SCID mice. To be noted: NCI-H226 xenograft. The method, then:
Female CB17/Icr-Prkdc^scid/IcrIcoCrl mice (6-8 weeks old) were bred at Charles River (Les Oncins, France), housed in Sanofi AAALAC accredited animal facilities, and were provided with irradiated food and filtered water ad libitum.
as §2
The same type of events was observed when SCID mice implanted with malignant mesothelioma parental NCI-H226 cells were treated with 200 mg/kg BID of the benchmark TEAD-inhibitor K-975 (Kaneda A et al. Am J Cancer Res. 2020; 10(12):4399-4415) for 17 consecutive days (FIG. 5). […] The TEAD-500 score correlates, therefore, with tumor behavior under treatment and can be used as a marker of the pharmacodynamics or efficacy of a drug.

A further test relates to CYR61. In words: CYR61 (CCN1) marker of TEAD activity, RNA and protein (ELISA) level, in NCI-H226 cells. It is filed as cell-based, human. As to conditions: NCI-H226 cells in vitro, treated for 24 hours. The method, then: The latter protein markers were measured by ELISA assays. Cell lysates were diluted 1/500 in cell lysis buffer. A minimum of four biologic replicates were analyzed for each model. In the reading plate, standards and samples are run in duplicate. hCYR61 was assessed using the human Cyr61 Quantikine™ Colorimetric Sandwich ELISA Kit (R&D Systems, Minneapolis, MN). Diluted lysates were processed and analyzed as described in the manufacturer's instructions. Absorbance values were read using a microplate reader set to 450 nm.
So did the RNA and protein levels of the classical secreted marker of Hippo pathway activity, CYR61 (FIG. 3C).
In general terms: ELISA stands for enzyme-linked immunosorbent assay.

The subject of the next test is TEAD. In words: TEAD-500 score (TEAD-dependent transcription) in NCI-H226 cells grown in vitro. Format: cell-based, human. As to conditions: NCI-H226 malignant mesothelioma cells in vitro, treated for 24 hours.
Source text: as §1
We considered the most abundant transcript of a gene as the representative of the expression of the gene. We, therefore, retain the expression level of the major transcript (maximum level-value per gene and sample, level values may be expression-array signals, RNA sequencing counts, fragments per kilobase per million counts (FPKM), transcripts per million (TPM), or whatever other metric is conveniently used) and discarded the values of all other transcripts. The maximum expression levels of the genes were transformed into fractional ranks by dividing with the maximum expression value of all genes (most abundant gene) observed within a sample. No other normalization is required.
All cell lines were grown at 37° C. under five percent CO2. MSTO-211H (#CRL-2081), NCI-H226 (#CRL-5826), NCI-H2052 (#CRL-5915), NCI-H28 (#CRL-5820), and HCT116 (#CCL-247) were purchased from the American Type Culture Collection (ATCC, Manassas, VA, USA) and cultured according to supplier's recommendation. […]
Fresh tumors were preserved in RNAlater (Thermo Fisher) and frozen at […]. […] The RNA concentration and purity were evaluated with an ND-1000 spectrophotometer (NanoDrop, Thermo Fisher). […]

“Also recorded” adds a separate entry of the source.

In the case of `C=CC(=O)Nc1ccc(C)c(Oc2ccc(Cl)cc2)c1` [K-975], the “inhibition of the TEAD-dependent transcription (TEAD-500 score)” value in test [1] was 30-40%. In the test with NCI-H226 cells (30 mg/kg BID), the “tumor behavior under treatment” value was “inactive”. In addition, in the test with NCI-H226 cells (100 mg/kg BID), the “tumor behavior under treatment” value is listed as “almost tumor stasis” and the ΔT/ΔC turned out to be 12. The “tumor behavior under treatment” value in the test with NCI-H226 cells (200 mg/kg BID, 17 consecutive days) is given as “tumor regression”. In the test on CYR61, the “RNA level of CYR61 (CCN1)” value was “inhibition; also recorded: regressed in a dose-dependent manner” and the “protein level of CYR61 (CCN1)” value is on record as “inhibition; also recorded: regressed in a dose-dependent manner”. In the test on TEAD, the TEAD-500 score result is “Dose-dependent regression; also recorded: regressed in a dose-dependent manner”.

Values taken from patent US20260035750A1, “TRANSCRIPTIONAL REGULATORS OF THE TEAD FAMILY” (Sanofi, priority 2022, published 2026).
